Counter-ions that a name gives are not always drawn.
Experiments:
[1] = molecular target: T1, NLRP3 (Homo sapiens, UniProt Q96P20); test: THP-1 cells pyroptosis assay (LPS + nigericin, resazurin readout; THP IC50); type: cell-based; design: Seed THP-1 cells (25,000 cells/well) containing 1.0 μg/ml LPS in 40 μl of RPMI medium; host or cells: THP-1 cells
Summary of the method: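 Human THP-1 cells, 25,000/well in serum-free RPMI with 1 μg/ml LPS, treated 3 hrs at 37° C with compound (8-point half-log, 10 μM top, 0.1% DMSO), then 5 μM nigericin 1 hr. Viability by 100 μM resazurin fluorescence after 1-2 hrs; IC50 by 4-parameter fit.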

[2] = molecular target: T1, NLRP3; test: Human whole blood IL1β release assay (LPS + nigericin, AlphaLisa IL-1β; HWB IC50); type: cell-based; design: Human whole blood in Li-heparin tubes was obtained from healthy donors from a volunteer donor panel; from tissue; host or cells: human whole blood from healthy donors; conditions: IL-1β release
Summary of the method: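 Donor Li-heparin whole blood primed with 1 μg/ml LPS, given compound (8-point half-log series, 10 μM top; DMSO 0.1% final) for 3 h at 37 °C, then nigericin 10 μM final for 1 h. Supernatant IL-1β measured by AlphaLisa; IC50 from 4-parameter variable-slope fit.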

T1 sequence (Q96P20 whole entry): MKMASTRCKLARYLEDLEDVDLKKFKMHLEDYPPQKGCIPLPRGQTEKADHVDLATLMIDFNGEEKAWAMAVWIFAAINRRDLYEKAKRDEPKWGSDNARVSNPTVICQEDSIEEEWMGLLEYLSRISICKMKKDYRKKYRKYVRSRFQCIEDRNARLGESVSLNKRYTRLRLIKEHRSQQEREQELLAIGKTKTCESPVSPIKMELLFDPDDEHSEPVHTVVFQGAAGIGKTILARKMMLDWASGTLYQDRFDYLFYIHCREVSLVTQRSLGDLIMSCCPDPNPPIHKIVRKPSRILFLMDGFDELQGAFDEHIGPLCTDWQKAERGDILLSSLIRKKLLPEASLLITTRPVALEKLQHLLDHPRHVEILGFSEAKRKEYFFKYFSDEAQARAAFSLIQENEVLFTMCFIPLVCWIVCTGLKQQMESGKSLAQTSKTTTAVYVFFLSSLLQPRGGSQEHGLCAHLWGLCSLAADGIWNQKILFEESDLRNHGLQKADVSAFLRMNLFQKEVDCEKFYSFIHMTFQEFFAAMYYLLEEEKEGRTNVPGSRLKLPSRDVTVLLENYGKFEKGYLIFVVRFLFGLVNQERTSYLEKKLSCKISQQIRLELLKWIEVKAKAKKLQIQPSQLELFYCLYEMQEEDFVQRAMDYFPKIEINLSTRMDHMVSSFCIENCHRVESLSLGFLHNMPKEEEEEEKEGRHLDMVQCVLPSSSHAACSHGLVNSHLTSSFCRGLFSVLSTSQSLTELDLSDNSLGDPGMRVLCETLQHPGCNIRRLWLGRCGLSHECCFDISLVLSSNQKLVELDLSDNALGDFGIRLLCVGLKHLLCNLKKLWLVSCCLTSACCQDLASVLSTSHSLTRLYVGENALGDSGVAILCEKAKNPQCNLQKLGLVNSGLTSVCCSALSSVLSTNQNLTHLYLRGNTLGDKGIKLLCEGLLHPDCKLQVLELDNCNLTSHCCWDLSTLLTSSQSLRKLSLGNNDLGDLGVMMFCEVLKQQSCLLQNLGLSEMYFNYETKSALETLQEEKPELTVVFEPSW

Row | IC50 [1] [nM] | IC50 [2] [nM] | Compound
1 | ≤ 500 | ≤ 1000 | COc1cc(-c2ccc3c(c2NC(=O)NS(=O)(=O)c2cn(C(C)C)cn2)CCC3)ccn1 [Example 233, 1-Isopropyl-N-((5-(2-methoxypyridin-4-yl)-2,3-dihydro-1H-inden-4-yl)carbamoyl)-1H-imidazole-4-sulfonamide]
2 | ≤ 500 | ≤ 1000 | COc1cc(-c2ccc3c(c2NC(=O)NS(=O)(=O)c2cn(C(C)C)nn2)CCC3)ccn1 [Example 234, 1-Isopropyl-N-((5-(2-methoxypyridin-4-yl)-2,3-dihydro-1H-inden-4-yl)carbamoyl)-1H-1,2,3-triazole-4-sulfonamide, sodium salt]
3 | ≤ 500 | ≤ 500 | COc1cc(-c2ccc3c(c2NC(=O)NS(=O)(=O)c2cnn(CC(F)F)c2)CCC3)ccn1 [Example 235, 1-(2,2-Difluoroethyl)-N-((5-(2-methoxypyridin-4-yl)-2,3-dihydro-1H-inden-4-yl)carbamoyl)-1H-pyrazole-4-sulfonamide, sodium salt]
4 | ≤ 500 | ≤ 500 | COc1cc(-c2ccc3c(c2NC(=O)NS(=O)(=O)c2ccn(C(C)(C)CN4CC(C)C4)n2)CCC3)ccn1 [Example 236, N-((5-(2-Methoxypyridin-4-yl)-2,3-dihydro-1H-inden-4-yl)carbamoyl)-1-(2-methyl-1-(3-methylazetidin-1-yl)propan-2-yl)-1H-pyrazole-3-sulfonamide]
5 | ≤ 500 | ≤ 1000 | CC(C)n1ccc(S(=O)(=O)NC(=O)Nc2c(-c3ccnc(OC(F)F)c3)ccc3c2CCC3)n1 [Example 237, N-((5-(2-(Difluoromethoxy)pyridin-4-yl)-2,3-dihydro-1H-inden-4-yl)carbamoyl)-1-isopropyl-1H-pyrazole-3-sulfonamide, sodium salt]
6 | ≤ 500 | ≤ 500 | COc1cc(-c2ccc3c(c2NC(=O)NS(=O)(=O)c2nn(C(C)C)cc2F)CCC3)ccn1 [Example 239, 4-Fluoro-1-isopropyl-N-((5-(2-methoxypyridin-4-yl)-2,3-dihydro-1H-inden-4-yl)carbamoyl)-1H-pyrazole-3-sulfonamide]
7 | ≤ 500 | ≤ 500 | COc1cc(-c2ccc3c(c2NC(=O)NS(=O)(=O)c2ccn(C(C)(C)CN4CC(F)C4)n2)CCC3)ccn1 [Example 242, 1-(1-(3-Fluoroazetidin-1-yl)-2-methylpropan-2-yl)-N-((5-(2-methoxypyridin-4-yl)-2,3-dihydro-1H-inden-4-yl)carbamoyl)-1H-pyrazole-3-sulfonamide, sodium salt]
8 | ≤ 500 | ≤ 500 | COc1cc(-c2ccc3c(c2NC(=O)NS(=O)(=O)c2ccn(C(C)(C)CN4CCCC4)n2)CCC3)ccn1 [Example 243, N-((5-(2-Methoxypyridin-4-yl)-2,3-dihydro-1H-inden-4-yl)carbamoyl)-1-(2-methyl-1-(pyrrolidin-1-yl)propan-2-yl)-1H-pyrazole-3-sulfonamide, sodium salt]
9 | ≤ 500 | ≤ 500 | COc1cc(-c2ccc3c(c2NC(=O)NS(=O)(=O)c2ccn(C4CCC4)n2)CCC3)ccn1 [Example 244, 1-Cyclobutyl-N-((5-(2-methoxypyridin-4-yl)-2,3-dihydro-1H-inden-4-yl)carbamoyl)-1H-pyrazole-3-sulfonamide, sodium salt]
10 | ≤ 500 | ≤ 500 | Cc1cc(-c2ccc3c(c2NC(=O)NS(=O)(=O)c2ccn(C(C)C)n2)CCC3)ccn1 [Example 245, 1-Isopropyl-N-((5-(2-methylpyridin-4-yl)-2,3-dihydro-1H-inden-4-yl)carbamoyl)-1H-pyrazole-3-sulfonamide, sodium salt]
11 | ≤ 500 | ≤ 1000 | COc1cc(-c2ccc3c(c2NC(=O)NS(=O)(=O)c2cnn(C(C)C)n2)CCC3)ccn1 [Example 246, 2-Isopropyl-N-((5-(2-methoxypyridin-4-yl)-2,3-dihydro-1H-inden-4-yl)carbamoyl)-2H-1,2,3-triazole-4-sulfonamide, sodium salt]
12 | ≤ 500 | ≤ 500 | COc1cc(-c2ccc3c(c2NC(=O)NS(=O)(=O)c2ccn(C4(CN(C)C)CCC4)n2)CCC3)ccn1 [Example 247, 1-(1-((Dimethylamino)methyl)cyclobutyl)-N-((5-(2-methoxypyridin-4-yl)-2,3-dihydro-1H-inden-4-yl)carbamoyl)-1H-pyrazole-3-sulfonamide, sodium salt]
13 | ≤ 500 | ≤ 500 | COc1cc(-c2ccc3c(c2NC(=O)NS(=O)(=O)c2ccn(C4CC4)n2)CCO3)ccn1 [Example 248, 1-Cyclopropyl-N-((5-(2-methoxypyridin-4-3-sulfonamide, sodium salt]
14 | ≤ 500 | ≤ 500 | COc1cc(-c2ccc3c(c2NC(=O)NS(=O)(=O)c2ccn(CCF)n2)CCC3)ccn1 [Example 249, 1-(2-Fluoroethyl)-N-((5-(2-methoxypyridin-4-yl)-2,3-dihydro-1H-inden-4-yl)carbamoyl)-1H-pyrazole-3-sulfonamide, sodium salt]
15 | ≤ 500 | ≤ 500 | COc1cc(-c2ccc3c(c2NC(=O)NS(=O)(=O)c2cnn(C(C)C)c2)CCC3)ccn1 [Example 250, 1-Isopropyl-N-((5-(2-methoxypyridin-4-yl)-2,3-dihydro-1H-inden-4-yl)carbamoyl)-1H-pyrazole-4-sulfonamide, sodium salt]
16 | ≤ 500 | ≤ 500 | COc1cc(-c2ccc3c(c2NC(=O)NS(=O)(=O)c2ccn(C(C)(C)C)n2)CCC3)ccn1 [Example 252, 1-(tert-Butyl)-N-((5-(2-methoxypyridin-4-yl)-2,3-dihydro-1H-inden-4-yl)carbamoyl)-1H-pyrazole-3-sulfonamide, sodium salt]
17 | ≤ 1000 | ≤ 5000 | CNc1cc(-c2ccc3c(c2NC(=O)NS(=O)(=O)c2ccn(C4CC4)n2)CCC3)ccn1 [Example 253, 1-Cyclopropyl-N-((5-(2-(methylamino)pyridin-4-yl)-2,3-dihydro-1H-inden-4-yl)carbamoyl)-1H-pyrazole-3-sulfonamide]
18 | ≤ 500 | ≤ 500 | COc1cc(-c2ccc3c(c2NC(=O)NS(=O)(=O)c2ccn(C4CC4)n2)CCC3)c(F)cn1 [Example 255, 1-Cyclopropyl-N-((5-(5-fluoro-2-methoxypyridin-4-yl)-2,3-dihydro-1H-inden-4-yl)carbamoyl)-1H-pyrazole-3-sulfonamide, sodium salt]
19 | ≤ 500 | ≤ 500 | COc1cc(-c2ccc3c(c2NC(=O)NS(=O)(=O)c2ccn(C4CCC4)n2)CCO3)ccn1 [Example 257, 1-Cyclobutyl-N-((5-(2-methoxypyridin-4-yl)-2,3-dihydrobenzofuran-4-yl)carbamoyl)-1H-pyrazole-3-sulfonamide, sodium salt]
20 | ≤ 500 | ≤ 500 | COc1cc(-c2ccc3c(c2NC(=O)NS(=O)(=O)c2ccn(C(C)(C)CN4CCC4)n2)CCO3)ccn1 [Example 258, 1-(1-(Azetidin-1-yl)-2-rnethylpropan-2-yl)-N-((5-(2-methoxypyridin-4-yl)-2,3-dihydrobenzofuran-4-yl)carbamoyl)-1H-pyrazole-3-sulfonamide, sodium salt]
21 | ≤ 500 | ≤ 500 | COc1cc(-c2ccc3c(c2NC(=O)NS(=O)(=O)c2ccn(C(C)(C)C)n2)CCO3)ccn1 [Example 259, 1-(tert-Butyl)-N-((5-(2-methoxypyridin-4-yl)-2,3-dihydrobenzofuran-4-yl)carbamoyl)-1H-pyrazole-3-sulfonamide, sodium salt]
22 | ≤ 500 | ≤ 5000 | CC(C)n1ncc(S(=O)(=O)NC(=O)Nc2c(-c3ccnc(C#N)c3)ccc3c2CCC3)n1 [Example 260, N-((5-(2-Cyanopyridin-4-yl)-2,3-dihydro-1H-inden-4-yl)carbamoyl)-2-isopropyl-2H-1,2,3-triazole-4-sulfonamide, sodium salt]
23 | ≤ 500 | ≤ 5000 | O=C(Nc1c(-c2ccnc(OC3CC3)c2)ccc2c1CCC2)NS(=O)(=O)c1ccn(C2CC2)n1 [Example 261, N-((5-(2-Cyclopropoxypyridin-4-yl)-2,3-dihydro-1H-inden-4-yl)carbamoyl)-1-cyclopropyl-1H-pyrazole-3-sulfonamide, sodium salt]
24 | ≤ 500 | ≤ 1000 | O=C(Nc1c(-c2ccnc(OC(F)F)c2)ccc2c1CCC2)NS(=O)(=O)c1ccn(C2CC2)n1 [Example 262, 1-Cyclopropyl-N-((5-(2-(difluoromethoxy)pyridin-4-yl)-2,3-dihydro-1H-inden-4-yl)carbamoyl)-1H-pyrazole-3-sulfonamide, sodium salt]
25 | ≤ 500 | ≤ 500 | COc1cc(-c2ccc3c(c2NC(=O)NS(=O)(=O)c2ccn(CC4CC4)n2)CCC3)ccn1 [Example 263, 1-(Cyclopropylmethyl)-N-((5-(2-methoxypyridin-4-yl)-2,3-dihydro-1H-inden-4-yl)carbamoyl)-1H-pyrazole-3-sulfonamide, sodium salt]
26 | ≤ 500 | ≤ 500 | CC(C)(C)n1ccc(S(=O)(=O)NC(=O)Nc2c(-c3ccnc(C#N)c3)ccc3c2CCC3)n1 [Example 264, 1-(tert-Butyl)-N-((5-(2-cyanopyridin-4-yl)-2,3-dihydro-1H-inden-4-yl)carbamoyl)-1H-pyrazole-3-sulfonamide, sodium salt]

— patent US20200361895A1, “NOVEL SULFONAMIDE CARBOXAMIDE COMPOUNDS” (Inflazome Limited, priority 2017, published 2020)
